Results taken from ChEMBL document CHEMBL3044848, “Antiangiogenic and growth inhibitory effects of synthetic novel 1, 5-diphenyl-1,4 pentadiene-3-one-3-yl-ethanone pyridine curcumin analogues on Ehrlich ascites tumor in vivo” (Med Chem Res, 2008).
Active and inactive are the calls of the source. The calls are words filed in the database; no cut-off is given here.

Experiments:
EAT [1] = assay: Antitumor activity against EAT cells xenografted in Mus musculus Swiss albino (mouse) assessed as apoptotic bodies at 100 mg/kg, ip administered on days 7,9 and 11 post tumor-injection measured on day 12 by Geimsa staining; format: functional, organism-based; parameters: dose 100 mg/kg
EAT [2] = assay: Antitumor activity against Mus musculus (mouse) EAT cells xenografted in Mus musculus Swiss albino (mouse) assessed as decrease in ascites volume at 100 mg/kg, ip administered on days 7,9 and 11 post tumor-injection measured on day 12 relative to control; format: functional, organism-based; parameters: dose 100 mg/kg
Mus musculus [3] = assay: Toxicity against Mus musculus Swiss albino (mouse) assessed as mortality at 100 mg/kg, ip; format: organism-based; parameters: dose 100 mg/kg, route intraperitoneal; details: in vivo
Chorioallantoic membrane = assay: Antiangiogenesis activity against fertilized Gallus gallus (chicken) egg chorioallantoic membrane assessed as inhibition of neovascularization at 0.1 mM administered to 11 day old embryo measured on day 13 by microscopic analysis; format: functional, tissue-based
EAT [4] = assay: Antiangiogeneic activity against Mus musculus (mouse) EAT cells xenografted in Mus musculus Swiss albino (mouse) assessed as decrease in peritoneal microvessel density per high power field at 100 mg/kg, ip administered on days 7,9 and 11 measured on day 12 by H and E staining-based microscopic analysis; format: functional, organism-based; parameters: dose 100 mg/kg
[5] = Antitumor activity against Mus musculus (mouse) EAT cells xenografted in Mus musculus Swiss albino (mouse)assessed as increase in life span at 100 mg/kg, ip administered on days 7,9 and 11 post tumor-injection measured on day 12 relative to control; format: functional; details: route intraperitoneal
EAT [6] = assay: Antitumor activity against Mus musculus (mouse) EAT cells xenografted in Mus musculus Swiss albino (mouse) assessed as decrease in cell number at 100 mg/kg, ip administered on days 7,9 and 11 post tumor-injection measured on day 12 relative to control; format: functional, organism-based; parameters: dose 100 mg/kg
Mus musculus [7] = assay: Toxicity against Mus musculus Swiss albino (mouse) assessed as weight loss at 100 mg/kg, ip; format: organism-based; parameters: dose 100 mg/kg, route intraperitoneal; details: in vivo
[8] = Antitumor activity against Mus musculus (mouse) EAT cells xenografted in Mus musculus Swiss albino (mouse) assessed as change in body weight at 100 mg/kg, ip administered on days 7,9 and 11 post tumor-injection measured on day 12 (reference value: 10.44 +/- 0.147); format: functional; details: route intraperitoneal
EAT [9] = assay: Antitumor activity against EAT cells xenografted in Mus musculus (mouse) assessed as condensed nuclei at 100 mg/kg, ip administered on days 7,9 and 11 post tumor-injection measured on day 12 by acridine orange:ethidium bromide staining; format: functional, organism-based; parameters: dose 100 mg/kg

Structure (SMILES)	Activity (EAT [1])	Activity (EAT [2])	Activity (Mus musculus [3])	inhibition (Chorioallantoic membrane)	Activity (EAT [4])	Activity [5]	Activity (EAT [6])	Activity (Mus musculus [7])	Activity [8]	Activity (EAT [9])
O=C(/C=C/c1ccc(OCC(=O)c2cccnc2)cc1)/C=C/c1ccc(OCC(=O)c2cccnc2)cc1	Active	Active	Non-toxic	Active	Active	66.6%	Active	Non-toxic	-4.96 g	Active
COc1cc(/C=C/C(=O)/C=C/c2ccc(OCC(=O)c3cccnc3)c(OC)c2)ccc1OCC(=O)c1cccnc1	Active	Active	Non-toxic	Active	Active	88.8%	Active	Non-toxic	-5.07 g	Active
